Test results as given in patent publication US9447028B2, “Therapeutic aryl-amido-aryl compounds and their use” (King's College London, priority 2009, dated 2016).

Key:
Type in all cases: cell-based
[1] = target: T1, RARα (Homo sapiens, UniProt P10276); assay: Transactivation assay for RAR alpha (gal4-RAR fusion, luciferase reporter, COS-7 cells); conditions: for RARα/RARβ ratio (*): fold-selectivity for RARα over RARβ; for RARα activity ratio: ratio of test compound EC50 to that of atRA on the same plate
T1 construct: gal4 (fusion partner); expressed in transfected cells; host or cells: COS-7
T1 sequence (P10276 183-417 limits assumed): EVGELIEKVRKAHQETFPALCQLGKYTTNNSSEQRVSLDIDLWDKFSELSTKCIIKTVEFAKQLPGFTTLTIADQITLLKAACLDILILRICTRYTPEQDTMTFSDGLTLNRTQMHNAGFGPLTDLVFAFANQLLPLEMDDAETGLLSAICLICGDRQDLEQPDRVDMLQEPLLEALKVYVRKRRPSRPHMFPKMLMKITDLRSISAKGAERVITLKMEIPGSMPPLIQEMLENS
Procedure: (§1) Transcriptional transactivation assays were performed with gal4 fusion receptor constructs, created using each of the RAR ligand binding domains, co-transfected with the pFR-luc (Stratagene™) reporter construct in COS-7 cells.
(§2) Briefly, on day 1, 96 well plates were seeded with 8000 cells per well then left to recover overnight. On day 2, the cells were co-transfected with 100 ng of reporter plasmid and 10 ng of the appropriate receptor plasmid per well using lipofectamine (Invitrogen™). On day 3, the lipofectamine containing media was replaced by a DMEM without phenol red, followed by the addition of test compound dissolved in 1 μL of DMSO to each well's 100 μL total volume. Finally, on day 4, the cells were lysed and their luciferase substrate was provided by the BrightGlo™ reagent (Promega™), the plates were then read on the MicroBeta TriLux™ (Perkin Elmer™).
(§3) Where replicate data has been generated, the data are quoted as a ratio of the mean EC50 from the separate experiments.

[2] = target: T2, RARγ (Homo sapiens, UniProt P13631); assay: Transactivation assay for RAR gamma (gal4-RAR fusion, luciferase reporter, COS-7 cells); conditions: ratio of test compound EC50 to that of atRA; inactive = no agonist action at the highest concentration tested
T2 construct: gal4 (fusion partner); expressed in transfected cells; host or cells: COS-7
T2 sequence (P13631 185-419 limits assumed): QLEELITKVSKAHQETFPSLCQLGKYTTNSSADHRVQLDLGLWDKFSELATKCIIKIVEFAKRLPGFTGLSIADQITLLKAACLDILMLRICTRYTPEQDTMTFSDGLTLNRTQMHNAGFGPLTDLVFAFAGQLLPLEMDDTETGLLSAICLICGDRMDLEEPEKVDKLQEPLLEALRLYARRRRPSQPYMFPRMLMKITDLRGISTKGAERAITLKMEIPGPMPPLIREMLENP
Procedure: as §1, §2, §3

[3] = target: T3, RARβ (Homo sapiens, UniProt P10826); assay: Transactivation assay for RAR beta (gal4-RAR fusion, luciferase reporter, COS-7 cells); conditions: ratio of test compound EC50 to that of atRA; inactive = no agonist action at the highest concentration tested
T3 construct: gal4 (fusion partner); expressed in transfected cells; host or cells: COS-7
T3 sequence (P10826 183-417 limits assumed): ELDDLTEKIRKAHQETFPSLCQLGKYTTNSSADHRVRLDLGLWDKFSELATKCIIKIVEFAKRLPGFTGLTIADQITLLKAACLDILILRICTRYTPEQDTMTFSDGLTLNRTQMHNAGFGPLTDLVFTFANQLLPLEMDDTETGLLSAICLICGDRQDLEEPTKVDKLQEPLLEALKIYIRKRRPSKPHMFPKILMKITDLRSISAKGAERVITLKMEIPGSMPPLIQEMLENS
Procedure: as §1, §2, §3

| RARα/RARβ ratio (*) [1] | RARα activity ratio [1] | RARγ activity ratio [2] | RARβ activity ratio [3] | Improvement (RARα activity ratio) ([1]; compared with XXX-03) | Improvement (RARα/RARβ ratio) ([1]; compared with XXX-03) | SMILES |
| --- | --- | --- | --- | --- | --- | --- |
| 535 | 19 | 5000 | 10164 |  |  | COCCOc1cc(C(=O)Nc2ccc(C(=O)O)c(F)c2)cc(Cl)c1OC [AAA-104, 4-(3-Chloro-4-methoxy-5-(2-methoxyethoxy)benzamido)-2-fluorobenzoic acid] |
| 47 | 36 | 933333 | 1700 |  |  | COc1cc(C(=O)Nc2ccc(C(=O)O)cc2)cc(OC(C)C)c1Cl [AAA-118, 4-(4-Chloro-3-isopropoxy-5-methoxybenzamido)benzoic acid] |
| 58.0 | 50 | inactive | 2900 |  |  | COC(=O)c1ccc(NC(=O)c2cc(Cl)c(OC3CCCC3)c(Cl)c2)cc1 [AAA-002, Methyl 4-(3,5-dichloro-4-(cyclopentyloxy)benzamido)benzoate] |
|  | 2242 |  |  |  |  | CCOc1ccc(C(=O)Nc2cc(F)c(C(=O)O)c(F)c2)cc1C(F)(F)F [XXX-02, 4-(4-Ethoxy-3-(trifluoromethyl)benzamido)-2,6-difluorobenzoic acid, reference compound] |
| 68 | 5.4 | 6000 | 369 |  |  | CCOc1c(Br)cc(C(=O)Nc2ccc(C(=O)O)cc2)cc1C(F)(F)F [AAA-042, 4-(3-Bromo-4-ethoxy-5-(trifluoromethyl)benzamido)benzoic acid] |
|  |  | inactive | 2010 |  |  | CCOc1c(Cl)cc(C(=O)Nc2ccc(C(=O)O)c(F)c2)cc1Cl [AAA-007, 4-(3,5-Dichloro-4-ethoxybenzamido)-2-fluorobenzoic acid] |
| >40 | 81 | 1977 | >3500 |  |  | CCOc1c(OC(C)C)cc(C(=O)Nc2ccc(C(=O)O)c(F)c2)cc1OC(C)C [AAA-064, 4-(3,5-Diisopropoxy-4-ethoxybenzamido)-2-fluorobenzoic acid] |
| 45 | 0.97 | 2859 | 43 |  |  | Cc1cc(NC(=O)c2cc(Cl)c(OC(C)C)c(OC(C)C)c2)ccc1C(=O)O [AAA-051, 4-(3-Chloro-4,5-diisopropoxybenzamido)-2-methylbenzoic acid] |
| 1212 | 2 | 1268 | 2464 |  |  | CC(C)Oc1cc(C(=O)Nc2ccc(C(=O)O)cc2)cc(OC(C)C)c1Cl [AAA-112, 4-(4-Chloro-3,5-diisopropoxybenzamido)benzoic acid] |
| 27.3 | 180 | inactive | 4920 |  |  | CCOc1c(Cl)cc(C(=O)Nc2ccc(C(=O)O)nc2)cc1Cl [AAA-026, 5-(3,5-Dichloro-4-ethoxybenzamido)picolinic acid] |
| 11.8 | 30 | inactive | 355 |  |  | CCOc1c(Cl)cc(NC(=O)c2ccc(C(=O)O)cc2)cc1Cl [AAA-013, 4-(3,5-Dichloro-4-ethoxyphenylcarbamoyl)benzoic acid] |
| 55 | 1.1 | 194 | 60 |  |  | Cc1cc(NC(=O)c2cc(Cl)c(OC(C)C)c(C(F)(F)F)c2)ccc1C(=O)O [AAA-040, 4-(3-Chloro-4-isopropoxy-5-(trifluoromethyl)benzamido)-2-methylbenzoic acid] |
| 275 | 25 | >56000 | 6885 |  |  | CCOc1c(Cl)cc(C(=O)Nc2ccc(C(=O)O)nn2)cc1OC(C)C [AAA-082, 6-(3-Chloro-4-ethoxy-5-isopropoxybenzamido)pyridazine-3-carboxylic acid] |
| 6 | 50 | 6047 | 279 |  |  | COc1c(Cl)cc(C(=O)Nc2ccc(C(=O)O)cc2F)cc1C(F)(F)F [AAA-067, 4-(3-Chloro-4-methoxy-5-(trifluoromethyl)benzamido)-3-fluorobenzoic acid] |
|  |  | 3770 | 3570 | ~1.3-fold | ~7.4-fold | O=C(O)c1ccc(NC(=O)c2cc(Cl)c(OCc3ccccc3)c(Cl)c2)cc1 [AAA-005, 4-(4-(Benzyloxy)-3,5-dichlorobenzamido)benzoic acid] |
| >500 | 140 |  | inactive |  |  | CCOc1c(Cl)cc(C(=O)Nc2ccc(C(=O)OC)c(Cl)c2)cc1Cl [AAA-017, Methyl 4-(3,5-dichloro-4-ethoxybenzamido)-2-chlorobenzoate] |
|  | 500 |  |  |  |  | CCOc1c(Cl)cc(C(=O)Nc2ccc(C(N)=O)cc2)cc1Cl [AAA-016, N-(4-Carbamoylphenyl)-3,5-dichloro-4-ethoxybenzamide] |
|  | 1.6 | 17460 | 318 |  |  | CCOc1c(Cl)cc(C(=O)Nc2ccc(C(=O)O)c(C)c2)cc1OC(C)C [AAA-080, 4-(3-Chloro-4-ethoxy-5-isopropoxybenzamido)-2-methylbenzoic acid] |
| 32 | 1.7 | 571 | 55 |  |  | O=C(O)c1ccc(NC(=O)c2cc(Cl)c(OC3CCCC3)c(OC3CCCC3)c2)cc1 [AAA-044, 4-(3-Chloro-4,5-bis(cyclopentyloxy)benzamido)benzoic acid] |
|  |  | 960 | 2450 |  |  | CCOc1cc(C(=O)Nc2ccc(C(=O)O)cc2)cc(OC(C)C)c1OCC [AAA-009, 4-(3,4-Diethoxy-5-isopropoxybenzamido)benzoic acid] |
|  |  | 62370 | 404 |  |  | CCOc1c(Br)cc(C(=O)Nc2ccc(C(=O)O)cc2)cc1Br [AAA-023, 4-(3,5-Dibromo-4-ethoxybenzamido)benzoic acid] |
| 236 | 32 |  | 7558 |  |  | COc1c(Cl)cc(C(=O)Nc2ccc(C(=O)O)c(F)c2)cc1C(F)(F)F [AAA-066, 4-(3-Chloro-4-methoxy-5-(trifluoromethyl)benzamido)-2-fluorobenzoic acid] |
|  | 760 |  |  |  |  | CCOc1c(F)cc(NC(=O)c2ccc(C(=O)O)cc2)cc1F [AAA-021, 4-(4-Ethoxy-3,5-difluorophenylcarbamoyl)benzoic acid] |
|  |  | inactive | 540 |  |  | CCOc1c(C(F)(F)F)cc(NC(=O)c2ccc(C(=O)O)cc2)cc1C(F)(F)F [AAA-015, 4-(4-Ethoxy-3,5-bis(trifluoromethyl)phenylcarbamoyl)benzoic acid] |
| >5 | 260 |  | inactive |  |  | CCOc1c(Cl)cc(C(=O)Nc2ccc(C(=O)O)cn2)cc1Cl [AAA-027, 6-(3,5-Dichloro-4-ethoxybenzamido)nicotinic acid] |
|  |  | 5840 | 1054 |  |  | COc1cc(C(=O)Nc2ccc(C(=O)O)cc2)cc(Cl)c1OC1CCCC1 [AAA-006, 4-(3-Chloro-4-(cyclopentyloxy)-5-methoxybenzamido)benzoic acid] |

| SMILES | RARα/RARβ ratio (*) [1] | RARα activity ratio [1] | RARγ activity ratio [2] | RARβ activity ratio [3] | Improvement (RARα activity ratio) ([1]; compared with XXX-03) | Improvement (RARα/RARβ ratio) ([1]; compared with XXX-03) |
| --- | --- | --- | --- | --- | --- | --- |
| Cc1cc(NC(=O)c2cc(Cl)c(OC(C)(C)C)c(OC(C)(C)C)c2)ccc1C(=O)O [AAA-049, 4-(3,4-Di-tert-butoxy-5-chlorobenzamido)-2-methylbenzoic acid] | 13200 | 0.64 | 82 | 8460 |  |  |
| COc1c(Cl)cc(C(=O)Nc2ccc(C(=O)O)c(F)c2)cc1OC1CCC1 [AAA-100, 4-(3-Chloro-5-cyclobutoxy-4-methoxybenzamido)-2-fluorobenzoic acid] | 99 | 33 | 11818 | 3273 |  |  |
